{"source": "patent US4137311A", "about": "“Synergistic compositions and method of use” (William H. Rorer, Inc., priority 1977, dated 1979)", "key": {"[1]": {"test_system": "Croton-Oil Induced Inflammation To The Mouse's Ear", "assay": "Delayed co-application to existing croton-oil induced inflammation of the mouse's ear (Table II), edema weight and percent inhibition", "conditions": "for Ear edema weight (± S.D.): control 14.9±3.8", "method": "(§1) Hydrocortisone and bis-(2-pyridyl-1-oxide) disulfide magnesium sulfate were suspended or dissolved in ethanol U.S.P. (200 proof) at concentrations of 20, 40 and 80 mg/ml of bis-(2-pyridyl-1-oxide) disulfide magnesium sulfate and 0.01, 1 and 10 mg of hydrocortisone.\nGroups of mice treated with only the croton oil irritant solution served as controls. The right ear of mice in any group was not treated.\n(§2) Four hours after application of the irritant vehicle (three hours after drug application) both ears were amputated and one circular section was exercised from each ear using a No. 4 cork borer (7 mm i.d.). The ear sections were then weighed. The increase in weight due to edema formation caused by the croton oil in the treated ear and reduction of the edema caused by treatment with bis-(2-pyridyl-1-oxide) disulfide magnesium sulfate hydrocortisone or combinations thereof was determined by subtracting the weight of the untreated right ear section from that of the treated left ear section."}, "[2]": {"test_system": "Croton-Oil Induced Inflammation To The Mouse's Ear", "assay": "Immediate co-administration: croton-oil induced inflammation of the mouse's ear (Table I), edema weight and percent inhibition", "conditions": "immediate application; for Ear edema weight (± S.D.): control 16.9±3.0", "method": "Mathematical determination of the synergistic effects of combinations of bis-(2-pyridyl-1-oxide) disulfide magnesium sulfate and hydrocortisone was done using a modification of the method described by Van Arman, C.\nas §1, §2\nEthanol was used as the vehicle; pyridine contained in the usual irritant vehicle as described previously produces an alkaline reaction. Controls were treated with only the croton oil vehicle.\nA fixed dose of 4 mg/ear of bis-(2-pyridyl-1-oxide) disulfide magnesium sulfate was co-applied with 0.01, 0.1 and 1 mg/ear of hydrocortisone."}, "[3]": {"assay": "Solubility in ethanol U.S.P. (200 proof)"}, "[4]": {"conditions": "delayed application, hydrocortisone (free alcohol) alone 0.01 mg/ear"}, "[5]": {"conditions": "delayed application, hydrocortisone (free alcohol) alone 0.1 mg/ear"}, "[6]": {"conditions": "delayed application, hydrocortisone (free alcohol) alone 1.0 mg/ear"}, "[7]": {"conditions": "hydrocortisone alone 0.1 mg/ear"}, "[8]": {"conditions": "hydrocortisone alone 1.0 mg/ear"}, "[9]": {"conditions": "delayed application, adduct alone 4 mg/ear"}, "[10]": {"conditions": "delayed application, adduct alone 8 mg/ear"}, "[11]": {"conditions": "adduct alone, topical dose 4 mg/ear"}}, "note": "Counter-ions that a name gives are not always drawn.", "data": [{"smiles": "C[C@]12CCC(=O)C=C1CC[C@@H]1[C@@H]2[C@@H](O)C[C@@]2(C)[C@H]1CC[C@]2(O)C(=O)CO", "note": "[Hydrocortisone]", "values": [{"measurement": "Percent inhibition of ear edema", "setting": "[1]; [4]", "value": 17.5, "unit": "%"}, {"measurement": "Ear edema weight (± S.D.)", "setting": "[1]; [4]", "value": "12.3 ± 3.3", "unit": "mg"}, {"measurement": "Percent inhibition of ear edema", "setting": "[1]; [5]", "value": 40.3, "unit": "%"}, {"measurement": "Ear edema weight (± S.D.)", "setting": "[1]; [5]", "value": "8.9 ± 2.3", "unit": "mg"}, {"measurement": "Percent inhibition of ear edema", "setting": "[1]; [6]", "value": 58.4, "unit": "%"}, {"measurement": "Ear edema weight (± S.D.)", "setting": "[1]; [6]", "value": "6.2 ± 2.4", "unit": "mg"}, {"measurement": "dose of hydrocortisone by itself necessary to achieve a similar response (46.3%)", "setting": "[1]; delayed application, hydrocortisone alone", "value": 0.25, "unit": "mg/ear"}, {"measurement": "expected anti-inflammatory response by extrapolation of dose-response line", "setting": "[1]; hydrocortisone by itself 0.00125 mg/ear", "value": "little, if any, significant anti-inflammatory response"}, {"measurement": "Percent inhibition of ear edema", "setting": "[2]; hydrocortisone alone 0.01 mg/ear (Table I)", "value": 23.1, "unit": "%"}, {"measurement": "Ear edema weight (± S.D.)", "setting": "[2]; hydrocortisone alone 0.01 mg/ear", "value": "13.0 ± 3.8", "unit": "mg"}, {"measurement": "Percent inhibition of ear edema", "setting": "[2]; [7]", "value": 53.3, "unit": "%"}, {"measurement": "Ear edema weight (± S.D.)", "setting": "[2]; [7]", "value": "7.9 ± 2.3", "unit": "mg"}, {"measurement": "Percent inhibition of ear edema", "setting": "[2]; [8]", "value": 67.5, "unit": "%"}, {"measurement": "Ear edema weight (± S.D.)", "setting": "[2]; [8]", "value": "5.5 ± 2.6", "unit": "mg"}, {"measurement": "inhibition", "setting": "[2]; hydrocortisone alone, dose printed in text 0.01 mg/ear", "value": 53.3, "unit": "%"}]}, {"smiles": "[O-][n+]1ccccc1SSc1cccc[n+]1[O-]", "note": "[bis-(2-pyridyl-1-oxide) disulfide magnesium sulfate]", "values": [{"measurement": "expected anti-inflammatory response by extrapolation of dose-response line", "setting": "[1]; adduct by itself 0.87 mg/ear", "value": "little, if any, significant anti-inflammatory response"}, {"measurement": "Ear edema weight (± S.D.)", "setting": "[1]; delayed application, 1 hour after croton oil, adduct alone 2 mg/ear", "value": "12.7 ± 2.4", "unit": "mg"}, {"measurement": "dose of adduct by itself necessary to achieve a similar response (46.3%)", "setting": "[1]; delayed application, adduct alone", "value": 17.7, "unit": "mg/ear"}, {"measurement": "Percent inhibition of ear edema", "setting": "[1]; delayed application, adduct alone 2 mg/ear", "value": 14.8, "unit": "%"}, {"measurement": "Percent inhibition of ear edema", "setting": "[1]; [9]", "value": 23.5, "unit": "%"}, {"measurement": "Ear edema weight (± S.D.)", "setting": "[1]; [9]", "value": "11.4 ± 2.8", "unit": "mg"}, {"measurement": "Percent inhibition of ear edema", "setting": "[1]; [10]", "value": 35.6, "unit": "%"}, {"measurement": "Ear edema weight (± S.D.)", "setting": "[1]; [10]", "value": "9.6 ± 2.2", "unit": "mg"}, {"measurement": "Percent inhibition of ear edema", "setting": "[2]; [11]", "value": 24.9, "unit": "%"}, {"measurement": "Ear edema weight (± S.D.)", "setting": "[2]; [11]", "value": "12.7 ± 3.0", "unit": "mg"}, {"measurement": "solubility in the alcohol vehicle", "setting": "[3]", "value": "formed a fine suspension"}]}]}
